Measurements from patent publication US11696928B2, “Compounds and use thereof in the expansion of stem cells and/or progenitor cells” (UNIVERSITE DE MONTREAL, priority 2017, dated 2023).

How the values were obtained:
[1] = system: Human CD34+ cord blood (CB) cells; experiment: CD34+ activity assessment (7-day expansion of pre-expanded CD34+ cells, flow cytometry); type: cell-based; details: concentration at which compound/vehicle ratio of CD34+ cell number is >= 1.5, 7 days, with 35 nM UM0128171
[2] = system: Human CD34+ cord blood (CB) cells; experiment: Assessment of cell composition in vitro (7-day culture of CB CD34+ cells); details: for expansion of CD34+CD45RA+ cells: alone or in combination with UM171, 7 days, FIGS. 1B, 1C and 1D; for overall percentage of CD34+ cells in cultures: combined use with UM171, 7 days, FIG. 1A right panel and FIG. 1D; for percentage of Dendritic Cells and Mast Cells: combined use with UM171, compared to Compounds used alone, FIG. 1D
AhR = molecular target: T1, AhR (Homo sapiens, UniProt P35869); experiment: Inhibition of AhR-mediated gene transcription (HEK-XRE 11.1 luciferase reporter, MeBIO induction); type: cell-based; details: HEK-XRE 11.1 cells, MeBIO 0.1 nM, luminescence after 24 hours
T1 construct: One of the resultant clones was named HEK-XRE 11.1, and used in the reporter gene assays; endogenous in cells; host or cells: HEK-XRE 11.1 (HEK cells stably carrying the AhR-responsive luciferase reporter X4-4.27 and phRL-CMV)
T1 sequence (P35869 11-848): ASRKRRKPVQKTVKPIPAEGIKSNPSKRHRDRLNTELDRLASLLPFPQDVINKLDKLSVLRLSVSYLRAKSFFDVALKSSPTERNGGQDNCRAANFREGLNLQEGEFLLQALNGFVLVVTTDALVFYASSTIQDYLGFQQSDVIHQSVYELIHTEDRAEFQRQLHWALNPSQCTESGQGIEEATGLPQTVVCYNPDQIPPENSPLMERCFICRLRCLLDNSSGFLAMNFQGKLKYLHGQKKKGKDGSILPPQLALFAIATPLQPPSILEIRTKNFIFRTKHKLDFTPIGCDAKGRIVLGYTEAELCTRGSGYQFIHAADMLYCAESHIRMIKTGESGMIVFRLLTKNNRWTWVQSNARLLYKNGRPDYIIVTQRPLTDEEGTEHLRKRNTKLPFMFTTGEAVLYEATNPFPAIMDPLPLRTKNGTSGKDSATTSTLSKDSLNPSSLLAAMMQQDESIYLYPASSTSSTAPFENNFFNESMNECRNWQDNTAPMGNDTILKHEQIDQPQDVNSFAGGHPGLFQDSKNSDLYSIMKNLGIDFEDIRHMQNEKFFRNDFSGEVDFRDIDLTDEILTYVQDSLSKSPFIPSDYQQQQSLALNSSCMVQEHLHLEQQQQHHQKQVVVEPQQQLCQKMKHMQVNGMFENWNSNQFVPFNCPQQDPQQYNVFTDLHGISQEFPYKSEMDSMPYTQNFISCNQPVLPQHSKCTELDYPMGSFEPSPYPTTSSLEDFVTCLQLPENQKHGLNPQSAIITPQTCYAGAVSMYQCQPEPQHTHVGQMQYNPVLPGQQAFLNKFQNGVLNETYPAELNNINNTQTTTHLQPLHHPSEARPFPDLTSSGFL
How it was run: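 HEK-XRE 11.1 cells, stably carrying an AhR-responsive firefly luciferase reporter, were stimulated with 0.1 nM MeBIO and given compounds in 8-point 1:3 serial dilutions from 10 mM (stock-range figure) in duplicate. Luminescence was read after 24 h culture without Renilla normalisation. Dose-response curves were fitted by nonlinear regression.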

[3] = system: Human CD34+ cord blood (CB) cells; experiment: Assessment of engraftment and myeloid vs lymphoid lineage contribution in vivo; design: species or system NSG mice

Nc1c(C(=O)Nc2ccccc2)sc2nc3c(cc12)CCC3 [Compound 1001]
EC1.5 ([1]; Table 1): <100 nM
number of CD34+ cells in CB cultures ([2]; 7 days culture, compared to other conditions, FIG. 1A middle): increases the number of CD34+ cells
expansion of CD34+CD45RA+ cells [2]: favors the expansion of CD34+CD45RA+ cells
overall percentage of CD34+ cells in cultures [2]: increased the overall percentage of CD34+ cells
percentage of Dendritic Cells and Mast Cells [2]: increased the percentage of Dendritic Cells and Mast Cells
IC50 (AhR; Table 1): < 50 nM
engraftment of expanded CB cells in the long term (12 and 20 weeks post transplantation) ([3]; CB cells expanded 7 days, alone or in combination with UM171, NSG mice bone marrow, FIG. 2A): engrafted with higher efficiency in the long term
contribution of lymphoid lineage ([3]; engrafted human CB cells in NSG mice, FIG. 2B): greatly increased

COc1ccc(NC(=O)c2sc3ncc(C)cc3c2N)cc1 [Compound 1114]
EC1.5 ([1]; Table 1): <100 nM
expansion of CD34+CD45RA+ cells [2]: favors the expansion of CD34+CD45RA+ cells
overall percentage of CD34+ cells in cultures [2]: increased the overall percentage of CD34+ cells
percentage of Dendritic Cells and Mast Cells [2]: increased the percentage of Dendritic Cells and Mast Cells
IC50 (AhR; Table 1): < 50 nM

Nc1c(C(=O)Nc2cccc(Cl)c2)sc2ccc(C(F)(F)F)cc12 [Compound 1144]
EC1.5 ([1]; Table 1): >5000 nM
IC50 (AhR; Table 1): < 50 nM

Cc1cccc(NC(=O)c2sc3ccc(C(F)(F)F)cc3c2N)c1 [Compound 1145]
EC1.5 ([1]; Table 1): >5000 nM
IC50 (AhR; Table 1): 50 to 500 nM

Nc1c(C(=O)Nc2ccc3c(c2)OCCO3)sc2ccc(C(F)(F)F)cc12 [Compound 1146]
EC1.5 ([1]; Table 1): >5000 nM
IC50 (AhR; Table 1): 50 to 500 nM

CCOc1ccc(NC(=O)c2sc3ccc(C(F)(F)F)cc3c2N)cc1 [Compound 1147]
EC1.5 ([1]; Table 1): >5000 nM
IC50 (AhR; Table 1): 50 to 500 nM

CSc1ccc(NC(=O)c2sc3ccc(C(F)(F)F)cc3c2N)cc1 [Compound 1148]
EC1.5 ([1]; Table 1): 100 to 1000 nM
IC50 (AhR; Table 1): 50 to 500 nM

Cc1cnc2sc(C(=O)Nc3ccc(OC(F)(F)F)cc3)c(N)c2c1 [Compound 1149]
EC1.5 ([1]; Table 1): 100 to 1000 nM
IC50 (AhR; Table 1): < 50 nM

Cc1cnc2sc(C(=O)Nc3ccsc3)c(N)c2c1 [Compound 1150]
EC1.5 ([1]; Table 1): 100 to 1000 nM
IC50 (AhR; Table 1): < 50 nM

Cc1ccc2sc(C(=O)Nc3ccc(OC(F)(F)F)cc3)c(N)c2c1 [Compound 1151]
EC1.5 ([1]; Table 1): >5000 nM
IC50 (AhR; Table 1): 50 to 500 nM

Nc1c(C(=O)Nc2ccsc2)sc2ccc(C(F)(F)F)cc12 [Compound 1152]
EC1.5 ([1]; Table 1): >5000 nM
IC50 (AhR; Table 1): < 50 nM

Nc1c(C(=O)Nc2ccc(F)cc2)oc2ncc(C(F)(F)F)cc12 [Compound 1154]
EC1.5 ([1]; Table 2): 100 to 1000 nM
IC50 (AhR; Table 2): < 50 nM
